Data as given in patent US20240383915A1, “OXAZEPINE COMPOUNDS AND USES THEREOF IN THE TREATMENT OF CANCER” (Genentech, Inc., priority 2021, published 2024).

Key:
[1] = molecular target: KRAS wild type (Homo sapiens (Human), UniProt P01116); assay: KRas (wt) GDP HTRF (BODIPY-GDP exchange TR-FRET); assay type: biochemical
Method: (§1) KRAS Biochemical Assay—BODIPY-GDP Exchange TR-FRET. Biochemical compound potencies were assessed by evaluating inhibition of SOS1-mediated nucleotide exchange in KRAS G12D. The SOS1-promoted exchange of fluorescently-labeled GDP (BODIPY-GDP) was monitored by time-resolved fluorescence resonance energy transfer (TR-FRET). Compounds solubilized in DMSO were dispensed as concentration series into 384-well white assay plates. A preformed complex of biotin-tagged recombinant human KRAS (1.5 nM mutant G12D or wild type) and 0.15 nM terbium-labeled streptavidin (CisBIO) prepared in 10 μL/well assay buffer (20 mM HEPES, pH 7.5, 50 mM NaCl, 10 mM MgCl2, 0.01% Tween-20 and 1 mM dithiothreitol) was added and allowed to incubate for 10-minutes. The reaction was initiated with the addition of 5 μL of 3 nM recombinant human SOS1 and 300 nM BODIPY-GDP in assay buffer. After a 60-minute incubation, the fluorescence was measured with excitation at 337 nm and emission at 490 and 520 nm. The TR-FRET ratio was determined as the fluorescence at 520 nm divided by the fluorescence at 490 nm multiplied by 10,000. […] The normalized TR-FRET results were plotted against compound concentration, and the data fit to a 4-parameter Hill equation to determine the IC50 values.

[2] = molecular target: KRAS G12D (Homo sapiens (Human), UniProt P01116, G12D); assay: KRas (G12D) GDP HTRF (BODIPY-GDP exchange TR-FRET); assay type: biochemical
Sequence of KRAS G12D (P01116-2 other isoform, or with tags, fused parts or gaps G12D): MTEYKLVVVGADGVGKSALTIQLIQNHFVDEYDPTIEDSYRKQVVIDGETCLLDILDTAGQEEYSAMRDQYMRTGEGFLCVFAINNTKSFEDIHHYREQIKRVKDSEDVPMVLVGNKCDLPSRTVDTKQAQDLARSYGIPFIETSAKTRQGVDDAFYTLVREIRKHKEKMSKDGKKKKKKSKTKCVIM
Method: as §1

[3] = molecular target: Raf-RBD/KRAS G12D interaction (Homo sapiens (Human), UniProt P01116, G12D); assay: KRAS G12D NanoBRET assay; assay type: cell-based; conditions: HCT116
Sequence of Raf-RBD/KRAS G12D interaction (P01116-2 other isoform, or with tags, fused parts or gaps G12D): as above
Method: KRAS G12D NanoBRET Assay. Cellular target engagement was assessed by monitoring inhibition of the Raf-RBD/KRAS G12D interaction in a NanoBRET™ assay (Promega). […] Cells were seeded into 384-well white tissue culture-treated assay plates in 40 μL culture medium (RPMI-1640 with 10% fetal bovine serum, 2 mM glutamine, […] puromycin, and 4 ng/mL blasticidin) with doxycycline to induce KRAS G12D-nanoluciferase expression over 20-24 h at 37° C., 5% CO2. The culture medium was then removed and replaced with assay medium (Opti-MEM® with 4% fetal bovine serum) and 0.1 μM HaloTag618 ligand. During the subsequent 4 h incubation at 37° C., 5% CO2, the HaloTag618 ligand binds to the Halotag-labeled KRAS G12D. Compounds solubilized in DMSO were then added as dilution series to the wells in a total volume of 160 nL (0.4% DMSO final), and the plates were incubated overnight at 37° C., 5% CO2. In the final step, 10 μL NanoGlo substrate in Opti-MEM was added to each well, and the emission read at 460 nm (luciferase signal) and 610 nm (NanoBRET signal) on an EnVision plate reader (PerkinElmer). The Raf-RBD/KRAS G12D interaction results in bioluminescence resonance energy transfer (BRET) from the product of the luciferase reaction in the vicinity of the Raf-RBD to the HaloTag ligand acceptor on the KRAS G12D and generates the NanoBRET signal. Binding of compounds to KRAS G12D and disruption of its interaction with Raf-RBD results in reduction of this signal. The luciferase signal and NanoBRET signal for compound wells were divided by the average corresponding signal for DMSO control wells. Then the NanoBRET ratio was calculated by dividing the control-adjusted NanoBRET signal by the similarly adjusted luciferase signal. […] The normalized NanoBRET ratio results were plotted against compound concentration, and the data fit to a 4-parameter Hill equation to determine the IC50 values.

[4] = molecular target: KRas(G12V) (Homo sapiens (Human), UniProt P01116, G12V); assay: KRas(G12V) GDP HTRF (BODIPY-GDP exchange TR-FRET); assay type: biochemical
Sequence of KRas(G12V) (P01116-2 other isoform, or with tags, fused parts or gaps G12V): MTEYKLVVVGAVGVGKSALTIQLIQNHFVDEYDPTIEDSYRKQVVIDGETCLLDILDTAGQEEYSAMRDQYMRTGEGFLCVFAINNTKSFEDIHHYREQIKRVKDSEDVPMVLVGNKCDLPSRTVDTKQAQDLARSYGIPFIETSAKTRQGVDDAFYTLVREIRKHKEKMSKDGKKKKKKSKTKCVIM

[5] = test system: SW480 cells; assay: SW480 proliferation assay; assay type: cell-based; conditions: Homo sapiens, SW480, SW480; read-out: SW480 Prolif IC50 (G12V)
[6] = molecular target: KRas (Homo sapiens (Human), UniProt P01116); assay: KRas GDP HTRF (BODIPY-GDP exchange TR-FRET); assay type: biochemical
Sequence of KRas (P01116-2 other isoform, or with tags, fused parts or gaps): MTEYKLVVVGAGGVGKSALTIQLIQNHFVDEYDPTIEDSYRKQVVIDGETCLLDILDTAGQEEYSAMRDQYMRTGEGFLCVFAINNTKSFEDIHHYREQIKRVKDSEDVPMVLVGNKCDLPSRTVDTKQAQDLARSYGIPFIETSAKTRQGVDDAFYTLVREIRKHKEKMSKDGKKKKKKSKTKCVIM
Method in brief: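 Inhibition of SOS1-mediated exchange of BODIPY-GDP on KRAS G12D, started with 3 nM recombinant human SOS1 and 300 nM BODIPY-GDP and read after 60 min. TR-FRET excitation 337 nm, ratio 520/490 nm ×10,000. IC50 from 4-parameter Hill fit of normalized data.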

[7] = test system: PC-9 cells; assay: PC9 proliferation assay; assay type: cell-based, human; conditions: Homo sapiens, PC-9, PC9; read-out: PC9 Prolif IC50 (G12V)

Sequence of KRAS wild type (P01116-2 other isoform, or with tags, fused parts or gaps): as above

SMILES | IC50 [1] | IC50 [2] | IC50 [3] | IC50 [4] | IC50 [5] | IC50 [6] | IC50 [7]
Cc1cc(N)nc(-c2cc3nc(OCC45CCCN4CCC5)nc4c3c(c2Cl)OCCN4CCN(C)C)c1C(F)(F)F [Example 510] | 240 nM | 13.6 nM | ≥ 10000 nM | – | – | – | –
C=C1CN2CCC[C@@]2(COc2nc3c4c(c(Cl)c(-c5c(F)ccc6cnn(C)c56)cc4n2)OCCN3CCN(C)C)C1 [Example 512] | 1110 nM | 174 nM | – | – | – | – | –
CNCCN1CCOc2c(Cl)c(-c3nc(N)cc(C)c3C(F)(F)F)cc3ncnc1c23 [Example 503] | 94300 nM | 4620 nM | ≥ 10000 nM | – | – | – | –
Cc1cc(N)nc(-c2cc3nc(OC[C@@H]4C[C@@H](F)CN4C)nc4c3c(c2Cl)OCCN4CCN(C)C)c1C(F)(F)F [Example 509, 6-(8-Chloro-4-(2-(dimethylamino)ethyl)-2-(((2S,4R)-4-fluoro-1-methylpyrrolidin-2-yl)methoxy)-5,6-dihydro-4H-[1,4]oxazepino[5,6,7-de]quinazolin-9-yl)-4-methyl-5-(trifluoromethyl)pyridin-2-amine] | 1660 nM | 164 nM | 9850 nM | – | – | – | –
C=C1CN2CCC[C@@]2(COc2nc3c4c(c(Cl)c(-c5nc(N)cc(C)c5C(F)(F)F)c(F)c4n2)OCCN3C2CCNC2)C1 (stereo partly drawn) [Example 518] | 128 nM | 29 nM | – | – | – | – | –
C=C1CN2CCC[C@@]2(COc2nc3c4c(c(Cl)c(-c5nc(N)cc(C)c5C(F)(F)F)c(F)c4n2)OCCN3C2CCNC2)C1 (stereo partly drawn) [Example 515] | 20 nM | 3.39 nM | – | – | – | – | –
Cc1cc(N)nc(-c2c(Cl)c3c4c(nc(OC[C@@H]5CC[C@H]6COCCN65)nc4c2F)N([C@H](C)c2cncnc2N)CCO3)c1C(F)(F)F (atropisomer, axis not shown; (aS)) [Example 102a, 5-((R)-1-((R)-9-(6-amino-4-methyl-3-(trifluoromethyl)pyridin-2-yl)-8-chloro-10-fluoro-2-(((6S,8aS)-hexahydro-1H-pyrrolo[2,1-c][1,4]oxazin-6-yl)methoxy)-5,6-dihydro-4H-[1,4]oxazepino[5,6,7-de]quinazolin-4-yl)ethyl)pyrimidin-4-amine] | – | – | – | 0.094 nM | 19 nM | 0.115 nM | 2200 nM
Cc1cc(N)nc(-c2cc3nc(OC[C@@]45CCCN4C[C@H](F)C5)nc4c3c(c2Cl)OCCN4Cc2ccn[nH]2)c1C(F)(F)F [Example 1, 6-(4-((1H-pyrazol-5-yl)methyl)-8-chloro-2-(((2R,7aS)-2-fluorotetrahydro-1H-pyrrolizin-7a(5H)-yl)methoxy)-5,6-dihydro-4H-[1,4]oxazepino[5,6,7-de]quinazolin-9-yl)-4-methyl-5-(trifluoromethyl)pyridin-2-amine] | – | – | – | 9 nM | 12000 nM | 46 nM | 18000 nM
Cc1cc(N)nc(-c2c(Cl)c3c4c(nc(OC[C@]56CCN5CC(F)(F)C6)nc4c2F)N([C@H](C)c2ccnnc2N)CCO3)c1C(F)(F)F (atropisomer, axis not shown) [Example 77b, 4-((R)-1-((R)-9-(6-amino-4-methyl-3-(trifluoromethyl)pyridin-2-yl)-8-chloro-2-(((R)-3,3-difluoro-1-azabicyclo[3.2.0]heptan-5-yl)methoxy)-10-fluoro-5,6-dihydro-4H-[1,4]oxazepino[5,6,7-de]quinazolin-4-yl)ethyl)pyridazin-3-amine] | – | – | – | 0.13 nM | 65 nM | 0.34 nM | 20000 nM
Cc1cc(N)nc(-c2c(Cl)c3c4c(nc(OCC56CCC(CC5)OC6)nc4c2F)N([C@H](C)c2cccnc2N)CCO3)c1C(F)(F)F [Example 157, 6-((R)-2-((2-oxabicyclo[2.2.2]octan-4-yl)methoxy)-4-((R)-1-(2-aminopyridin-3-yl)ethyl)-8-chloro-10-fluoro-5,6-dihydro-4H-[1,4]oxazepino[5,6,7-de]quinazolin-9-yl)-4-methyl-5-(trifluoromethyl)pyridin-2-amine] | – | – | – | 0.81 nM | 400 nM | 3.2 nM | 8200 nM
Cc1cc(N)nc(-c2c(Cl)c3c4c(nc(OCC56COC(CF)(C5)C6)nc4c2F)N([C@H](C)c2cccnc2N)CCO3)c1C(F)(F)F [Example 154, 6-((R)-4-((R)-1-(2-aminopyridin-3-yl)ethyl)-8-chloro-10-fluoro-2-((1-(fluoromethyl)-2-oxabicyclo[2.1.1]hexan-4-yl)methoxy)-5,6-dihydro-4H-[1,4]oxazepino[5,6,7-de]quinazolin-9-yl)-4-methyl-5-(trifluoromethyl)pyridin-2-amine] | – | – | – | 0.48 nM | 91 nM | 1.1 nM | 14000 nM
Cc1cc(N)nc(-c2c(Cl)c3c4c(nc(OC[C@@]56CCCN5C[C@H](F)C6)nc4c2F)N([C@H](C)c2nccnc2N)CCO3)c1C(F)(F)F (atropisomer, axis not shown; (aS)) [Example 101, 3-((R)-1-((R)-9-(6-amino-4-methyl-3-(trifluoromethyl)pyridin-2-yl)-8-chloro-10-fluoro-2-(((2R,7aS)-2-fluorotetrahydro-1H-pyrrolizin-7a(5H)-yl)methoxy)-5,6-dihydro-4H-[1,4]oxazepino[5,6,7-de]quinazolin-4-yl)ethyl)pyrazin-2-amine] | – | – | – | 0.06 nM | 5.7 nM | 0.0616 nM | 830 nM
CNc1cnc(N)c([C@@H](C)N2CCOc3c(Cl)c(-c4nc(N)cc(C)c4C(F)(F)F)c(F)c4nc(OC[C@@]56CCCN5C[C@H](F)C6)nc2c34)c1 (atropisomer, axis not shown; (aS)) [Example 79, 3-((R)-1-((R)-9-(6-amino-4-methyl-3-(trifluoromethyl)pyridin-2-yl)-8-chloro-10-fluoro-2-(((2R,7aS)-2-fluorotetrahydro-1H-pyrrolizin-7a(5H)-yl)methoxy)-5,6-dihydro-4H-[1,4]oxazepino[5,6,7-de]quinazolin-4-yl)ethyl)-N^5-methylpyridine-2,5-diamine] | – | – | – | 0.22 nM | 2.4 nM | 0.34 nM | 3100 nM
Cc1cc(N)nc(-c2c(Br)c3c4c(nc(OC[C@@]56CCCN5C[C@H](F)C6)nc4c2F)N([C@H](C)c2cccnc2N)CCO3)c1C(F)(F)F (atropisomer, axis not shown; (aS)) [Example 88, (R)-6-(4-((R)-1-(2-aminopyridin-3-yl)ethyl)-8-bromo-10-fluoro-2-(((2R,7aS)-2-fluorotetrahydro-1H-pyrrolizin-7a(5H)-yl)methoxy)-5,6-dihydro-4H-[1,4]oxazepino[5,6,7-de]quinazolin-9-yl)-4-methyl-5-(trifluoromethyl)pyridin-2-amine] | – | – | – | 0.05 nM | 1.5 nM | 0.12 nM | 3000 nM
Cc1cc(N)nc(-c2c(Cl)c3c4c(nc(OCC5CCN(C)C5)nc4c2F)N([C@H](C)c2cccnc2N)CCO3)c1C(F)(F)F (stereo partly drawn) [Example 134, 6-((9R)-4-((R)-1-(2-aminopyridin-3-yl)ethyl)-8-chloro-10-fluoro-2-((1-methylpyrrolidin-3-yl)methoxy)-5,6-dihydro-4H-[1,4]oxazepino[5,6,7-de]quinazolin-9-yl)-4-methyl-5-(trifluoromethyl)pyridin-2-amine] | – | – | – | 0.08 nM | 590 nM | 0.21 nM | 1600 nM
